According to article PMC5760531, “Action Potential Recording and Pro-arrhythmia Risk Analysis in Human Ventricular Trabeculae” (Frontiers in Physiology, 2018):
Several values for one entry are separate records, joined by “and”; a condition that tells them apart may be missing. Identical values can stand only once.

Assays:
[1] = human free (unbound) effective therapeutic plasma concentration used to calculate multiples; cited from earlier work
[2] = tested on: human ventricular trabeculae; test: Action potential recording and pro-arrhythmic score analysis in human ventricular trabeculae (hVT); settings: for EAD induction: any testing concentration, 1 and 2 Hz;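 for all read-outs here: sharp microelectrode action potential recordings at 37°C in Tyrode-perfused trabeculae, 4 cumulative concentrations each applied 31 min, values averaged over last 30 APs, vehicle 0.1% DMSO as control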
Protocol: Briefly, the human heart was transferred into a dissection vessel containing a cold (4°C), fresh proprietary dissection solution. The heart was maintained completely submerged in dissection solution. Ventricular trabeculae were dissected and transferred to the recording chamber.
Briefly, a single tissue was mounted into the experimental chamber filled with oxygenated Tyrode's external solution. The temperature of the solution was maintained at 37°C with flow rate at 5 mL per minute. The tissue was allowed to equilibrate for 30–60 min with stimulation (3 V, 3 ms) at a frequency of 1.0 Hz. High impedance borosilicate microelectrodes were prepared with a tip resistance of 10–20 MΩ once filled with 3 M KCl. Upon tissue impalement, the membrane potential was allowed to stabilize (typically, around −85 mV). Tissues with resting membrane potentials more positive than −75 mV were rejected. Bipolar stimulation at 1.5x threshold was applied and recordings were performed in continuous mode with sampling at 20 kHz using ADInstruments and LabChart Software.
Interruption of perfusion/oxygenation; (2). Absence of Aps following stimulation at baseline; (3). Time frame of drug exposure not respected; (4). Unstable response to stimulation at baseline; (5). Resting membrane potential (RMP) > −75 mV; 7). Maximal amplitude of AP (AMAX) <70 mV; 8). AP duration at 90% repolarization (APD90) <200 ms or >450 ms.
Experimental Procedure: Each test article was evaluated at 4 concentrations in 4 ventricular trabeculae derived from a minimum of 2 donor hearts. Testing concentrations were chosen based upon human free ETPC, aiming to cover 1–100-fold of human free ETPC. […] Briefly, following stabilization of each tissue, APs were collected and assessed for 31 min in vehicle control solution (Tyrode with 0.1% DMSO) at stimulation frequencies of 1 Hz for 25 min, 2 Hz for 3 min and then 1 Hz for 3 min. Following this vehicle control period, 4 concentrations of a test compound were applied sequentially and cumulatively. Each concentration was applied for 31 min with the same stimulation sequence as in vehicle controls.
For each frequency tested, the last 30 APs acquired at the end of the period were averaged for vehicle controls and for each test article concentration. Analysis at 1 Hz included only the last 30 APs of the initial 25-min incubation period. The following AP parameters and pro-arrhythmia variables were analyzed offline upon the completion of recordings:
• RMP (mV) • AMAX (mV) • AP duration at percent repolarization (APD20, APD30, APD50, APD60, APD90) (ms) • Short term variability analysis of AP duration (STV): Beat-to-beat variability of repolarization was quantified as STV from APD90 Poincare plots over a period of 30 sec.
Compound effects were quantified relative to the data collected during the vehicle control period (see Figure 1). […] Additionally, based on AnaBios historical data, threshold values for changes over baseline control for AP instability, APD alternans, Maximum APD dispersion and ERP (APD) were based upon an effect level of 10%. When applicable, differences were tested for statistical significance using the unpaired Student's t-test. A value of P < 0.05 was considered significant.
AP parameters and pro-arrhythmia variables were combined into a meaningful, single score to assess the pro-arrhythmic risk of a compound at each concentration tested. The pro-arrhythmic potential of compounds at 1 or 2 Hz was determined by assigning a weighted scale to each variable (Table 1).

[3] = 1Hz, c1-c4: 0.4-, 1.3-, 13-, 43-FOLD free ETPC (2.3µM)
[4] = 2Hz, c1-c4: 0.4-, 1.3-, 13-, 43-FOLD free ETPC (2.3µM)
[5] = average raw data, 1Hz, c2-c5: 0.4-, 1.3-, 13-, 43-FOLD free ETPC (2.3µM)
[6] = average raw data, 2Hz, c2-c5: 0.4-, 1.3-, 13-, 43-FOLD free ETPC (2.3µM)
[7] = 1Hz, c1-c4: 2-FOLD, 21-FOLD, 69-OLD, 207-FOLD free ETPC (0.145µM)
[8] = 2Hz, c1-c4: 2-FOLD, 21-FOLD, 69-OLD, 207-FOLD free ETPC (0.145µM)
[9] = average raw data, 1Hz, c2-c5: 2-FOLD, 21-FOLD, 69-OLD, 207-FOLD free ETPC (0.145µM)
[10] = average raw data, 2Hz, c2-c5: 2-FOLD, 21-FOLD, 69-OLD, 207-FOLD free ETPC (0.145µM)
[11] = initial 3 testing concentrations
[12] = 1Hz, c1-c4: 25-, 75-, 250-, 2500-FOLD free ETPC (0.0004µM)
[13] = 2Hz, c1-c4: 25-, 75-, 250-, 2500-FOLD free ETPC (0.0004µM)
[14] = average raw data, 1Hz, c2-c5: 25-, 75-, 250-, 2500-FOLD free ETPC (0.0004µM)
[15] = average raw data, 2Hz, c2-c5: 25-, 75-, 250-, 2500-FOLD free ETPC (0.0004µM)

COc1ccccc1OCC(O)CN1CCN(CC(=O)Nc2c(C)cccc2C)CC1 (stereo not shown) [RANOLAZINE, Ranolazine]
Free ETPC [1]: 2.3 µM | EADs incidence [2, 3]: 0% | Refractoriness Escape incidence [2, 3]: 0% | EADs incidence [2, 4]: 0% | Refractoriness Escape incidence [2, 4]: 0% | AMAX [2, 5]: 112 mV and 111 mV and 113 mV and 109 mV | APD30 [2, 5]: 146 ms and 136 ms and 126 ms and 116 ms | APD50 [2, 5]: 198 ms and 187 ms and 181 ms and 170 ms | APD90 [2, 5]: 266 ms and 257 ms and 274 ms and 294 ms | Alternans [2, 5]: 0.34 and 0.37 and 0.39 | EADs [2, 5]: 0 | ERP [2, 5]: 0.47 and 0.48 and 0.50 and 0.49 | Max Dispersion [2, 5]: 1.65 and 1.42 and 1.45 and 1.75 | Refractoriness Escape [2, 5]: 0 | STV [2, 5]: 0.22 and 0.27 and 0.29 and 0.24 | Triangulation [2, 5]: 121 and 148 and 178 | AMAX [2, 6]: 111 mV and 105 mV | APD30 [2, 6]: 108 ms and 102 ms and 99 ms and 104 ms | APD50 [2, 6]: 151 ms and 144 ms and 143 ms | APD90 [2, 6]: 215 ms and 210 ms and 230 ms and 275 ms | EADs [2, 6]: 0 | ERP [2, 6]: 0.48 and 0.49 and 0.47 | Refractoriness Escape [2, 6]: 0 | Triangulation [2, 6]: 107 and 108 and 131 and 172

CC(CC(c1ccccc1)c1ccccc1)NC(C)(C)C (stereo not shown) [TERODILINE, Terodiline]
Free ETPC [1]: 0.145 µM | EADs incidence [2, 7]: 0% | Refractoriness Escape incidence [2, 7]: 0% | EADs incidence [2, 8]: 0% | Refractoriness Escape incidence [2, 8]: 0% | STV ([2]; 2 Hz, first concentration): 0.9 | STV ([2]; 2 Hz, third concentration): 2.2 | STV increase ([2]; 2 Hz, third versus first concentration): 144% | EAD induction [2]: did not induce EAD | AMAX [2, 9]: 111 mV and 110 mV and 108 mV and 102 mV | APD30 [2, 9]: 151 ms and 142 ms and 126 ms and 113 ms | APD50 [2, 9]: 200 ms and 192 ms and 178 ms and 164 ms | APD90 [2, 9]: 270 ms and 268 ms and 293 ms | Beat Escape [2, 9]: 1 | EADs [2, 9]: 0 | ERP [2, 9]: 0.44 and 0.45 and 0.48 and 0.49 | Refractoriness Escape [2, 9]: 0 | Triangulation [2, 9]: 119 and 126 and 144 and 180 | AMAX [2, 10]: 109 mV and 108 mV and 106 mV and 100 mV | APD30 [2, 10]: 115 ms and 108 ms and 100 ms and 104 ms | APD50 [2, 10]: 157 ms and 150 ms and 140 ms and 151 ms | APD90 [2, 10]: 225 ms and 223 ms and 228 ms and 276 ms | Beat Escape [2, 10]: 1 | EADs [2, 10]: 0 | ERP [2, 10]: 0.45 and 0.47 and 0.48 | Refractoriness Escape [2, 10]: 0 | Triangulation [2, 10]: 110 and 115 and 128 and 172 | effect on amplitude of AP ([2]; especially at 30 μM): decreased the amplitude of AP | change in APD90 [2, 11]: less than 10% | change in triangulation [2, 11]: ≥ 20%

Cc1ccc(O)c([C@H](CCN(C(C)C)C(C)C)c2ccccc2)c1 [TOLTERODINE, Tolterodine]
Free ETPC [1]: 0.0004 µM | Beat Escape incidence [2, 12]: 0% | EADs incidence [2, 12]: 0% | Refractoriness Escape incidence [2, 12]: 0% | Beat Escape incidence [2, 13]: 0% | EADs incidence [2, 13]: 0% | Refractoriness Escape incidence [2, 13]: 0% | EAD induction [2]: did not induce EAD | AMAX [2, 14]: 110 mV and 113 mV and 107 mV and 112 mV | APD30 [2, 14]: 186 ms and 190 ms and 192 ms and 195 ms | APD50 [2, 14]: 248 ms and 256 ms and 279 ms and 294 ms | APD90 [2, 14]: 320 ms and 331 ms and 378 ms and 411 ms | Alternans [2, 14]: 0.39 and 0.41 and 0.53 and 0.63 | Beat Escape [2, 14]: 0 | EADs [2, 14]: 0 | ERP [2, 14]: 0.46 and 0.47 and 0.53 and 0.55 | Max Dispersion [2, 14]: 2.33 and 1.97 and 2.80 and 2.90 | Refractoriness Escape [2, 14]: 0 | STV [2, 14]: 0.32 and 0.28 and 0.38 and 0.40 | Triangulation [2, 14]: 134 and 141 and 186 and 215 | AMAX [2, 15]: 107 mV and 113 mV and 106 mV | APD30 [2, 15]: 131 ms and 143 ms and 136 ms and 134 ms | APD50 [2, 15]: 184 ms and 197 ms and 203 ms and 210 ms | APD90 [2, 15]: 254 ms and 268 ms and 299 ms and 327 ms | Beat Escape [2, 15]: 0 | EADs [2, 15]: 0 | ERP [2, 15]: 0.49 and 0.48 and 0.54 and 0.56 | Max Dispersion [2, 15]: 2.38 and 2.93 and 4.08 and 4.05 | Refractoriness Escape [2, 15]: 0 | Triangulation [2, 15]: 123 and 126 and 163 and 193 | effect on amplitude of AP ([2]; up to the highest testing concentration, 1 μM): negligible effects
